We go through 21 compounds from PubChem BioAssay (NCI).

Test systems include MDA-N; HCC-2998 colon; NCI-H226 lung; SK-MEL-2 melanoma; CCRF-CEM leukemia; SF-295 CNS; HL-60(TB) leukemia; UO-31 renal; NCI-H460 lung; BT-549 breast.
Holding throughout (assay): NCI anticancer screen, dose series, 48 h

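Assay format: 96-well plates, 48-hour exposure. TGI: total growth inhibition.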 Where a SMILES comes first, the peptide text is derived from it. The star is where a group is joined. Bn = c1ccc(C*)cc1

In the case of `Cc1c(C#N)c(N)n(C2OCC(O)C(O)C2O)c(=S)c1C#N` (stereo not given), the TGI in the assay with MDA-N, in the assay on HCC-2998 colon, in the assay with NCI-H226 lung, with SK-MEL-2 melanoma, with CCRF-CEM leukemia and in the assay with SF-295 CNS was above 100 µM in each case. For the same compound, the TGI in the assay with HL-60(TB) leukemia, in the assay on UO-31 renal, with NCI-H460 lung and in the assay on BT-549 breast was above 100 µM in each case.

Turning to `COC(=O)c1cc2c(cc1CC(Cc1ccc3c(c1)CCC3)C(=O)OC)CCC2` (stereo not given), the TGI with MDA-N, in the assay with HCC-2998 colon, with NCI-H226 lung, in the assay on SK-MEL-2 melanoma, in the assay on CCRF-CEM leukemia and in the assay on SF-295 CNS was above 100 µM throughout. Moreover, the TGI in the assay on HL-60(TB) leukemia is 31.1 µM; in the assay with UO-31 renal, above 100 µM; in the assay on NCI-H460 lung it was above 100 µM; with BT-549 breast, above 100 µM.

As for `CC(C)CCn1nc(N)c2nc3ccccc3nc21`, the TGI with MDA-N, in the assay on HCC-2998 colon, in the assay on NCI-H226 lung, with SK-MEL-2 melanoma, in the assay on CCRF-CEM leukemia and in the assay with SF-295 CNS was above 100 µM each time. Moreover, the TGI in the assay on HL-60(TB) leukemia, with UO-31 renal, in the assay on NCI-H460 lung and in the assay with BT-549 breast was above 100 µM in each case.

Regarding `COc1cc(OCc2ccc3nc(OC)c(OC)nc3c2)cc(OC)c1OC`, the TGI with MDA-N was above 10 µM; in the assay on HCC-2998 colon it was above 10 µM; in the assay with NCI-H226 lung, above 10 µM; in the assay with SK-MEL-2 melanoma it was above 2.29 µM; with CCRF-CEM leukemia, above 10 µM; in the assay on SF-295 CNS, above 10 µM. Moreover, the TGI in the assay on HL-60(TB) leukemia is above 10 µM; in the assay on UO-31 renal, above 10 µM; in the assay with NCI-H460 lung it was above 10 µM; with BT-549 breast, above 6.32 µM.

`N#CCCN(CCC#N)c1ccc(/C=C2\SC(=S)NC2=O)cc1Br`: the TGI with MDA-N, with HCC-2998 colon, in the assay with NCI-H226 lung, with SK-MEL-2 melanoma, in the assay on CCRF-CEM leukemia and in the assay on SF-295 CNS was above 100 µM each time. In addition, the TGI in the assay with HL-60(TB) leukemia, in the assay with UO-31 renal, in the assay with NCI-H460 lung and in the assay with BT-549 breast was above 100 µM each time.

On to `N#CC(=N)c1ncn(-c2ccccc2N)c1N`, for which the TGI with MDA-N, in the assay with HCC-2998 colon, with NCI-H226 lung, in the assay with SK-MEL-2 melanoma, in the assay with CCRF-CEM leukemia and in the assay with SF-295 CNS was above 100 µM each time. The TGI with HL-60(TB) leukemia, in the assay on UO-31 renal, in the assay with NCI-H460 lung and in the assay on BT-549 breast was above 100 µM in each case.

Turning to `COC(=O)C1OC(O[C@H]2CC[C@]3(C)[C@H]4CC=C5[C@@H]6CC(C)(C)CC[C@]6(C(=O)OC6OCC(O)C(O)C6OC6OC(C)C(OC7OCC(OC8OCC(O)C(O)C8O)C(O)C7O)C(O)C6O)[C@H](O)C[C@@]5(C)[C@]4(C)CC[C@H]3C2(C)C)C(O)C(O)C1O` (stereo not given in full), the TGI is 3.44 µM in the assay on MDA-N; 3.06 µM in the assay with HCC-2998 colon; 6.23 µM in the assay on NCI-H226 lung; 10.1 µM in the assay with SK-MEL-2 melanoma; above 100 µM in the assay with CCRF-CEM leukemia; 8.66 µM with SF-295 CNS. For the same compound, the TGI in the assay with HL-60(TB) leukemia is above 26.9 µM; with UO-31 renal, 3.56 µM; with NCI-H460 lung it was 32.5 µM; in the assay on BT-549 breast it was 4.4 µM.

For the compound `CC(C)(C)c1ccc(OCC(=O)O)c(Cl)c1`, the TGI with MDA-N, in the assay with HCC-2998 colon, with NCI-H226 lung, with SK-MEL-2 melanoma, in the assay with CCRF-CEM leukemia and in the assay with SF-295 CNS was above 100 µM throughout. Also, the TGI with HL-60(TB) leukemia, with UO-31 renal, in the assay on NCI-H460 lung and with BT-549 breast was above 100 µM throughout.

For the compound `O=C1c2cccc(NCCNCCO)c2C(=O)c2cccc(NCCNCCO)c21`, the TGI was determined as 1.55 µM with MDA-N; 2.45 µM with HCC-2998 colon; 3.51 µM in the assay on NCI-H226 lung; 2.77 µM in the assay with SK-MEL-2 melanoma; 2.88 µM with CCRF-CEM leukemia; 5.77 µM with SF-295 CNS. The TGI in the assay with HL-60(TB) leukemia worked out at 5.19 µM; in the assay with UO-31 renal, 25.9 µM; in the assay on NCI-H460 lung, 7.43 µM; in the assay with BT-549 breast it was 8.85 µM.

On to `Cc1cc(/N=C/c2ccc(C#N)cc2)n(-c2ccccc2)n1`, for which the TGI in the assay with MDA-N, with HCC-2998 colon, with NCI-H226 lung, in the assay with SK-MEL-2 melanoma, in the assay with CCRF-CEM leukemia and in the assay on SF-295 CNS was above 100 µM each time. For the same compound, the TGI in the assay with HL-60(TB) leukemia was 76.6 µM; in the assay on UO-31 renal it was above 100 µM; in the assay on NCI-H460 lung it was above 100 µM; in the assay on BT-549 breast it was above 100 µM.

For the compound `COC(=O)C1(Cc2ccc3c(c2)CCC3)Cc2ccccc2C1=O` (stereo not given), the TGI with MDA-N was 13.3 µM; with HCC-2998 colon, above 100 µM; in the assay with NCI-H226 lung, 50.5 µM; in the assay on SK-MEL-2 melanoma it was 38.7 µM; with CCRF-CEM leukemia, 67.2 µM; in the assay with SF-295 CNS, 67.4 µM. Moreover, the TGI in the assay with HL-60(TB) leukemia is 32.4 µM; with UO-31 renal, 84.4 µM; in the assay with NCI-H460 lung, 93.6 µM; in the assay with BT-549 breast, 41.7 µM.

For the compound `COc1c(O)c(O)cc2c1-c1ccc(OC)c(=O)cc1C(NC(C)=O)CC2` (stereo not given), the TGI was 4.84 µM with MDA-N; 74.8 µM in the assay on HCC-2998 colon; 70.2 µM in the assay with NCI-H226 lung; 50.6 µM in the assay with SK-MEL-2 melanoma; 40.2 µM in the assay on CCRF-CEM leukemia; 20.5 µM in the assay with SF-295 CNS. Further, the TGI is 18 µM in the assay with HL-60(TB) leukemia, above 100 µM with UO-31 renal, 50.9 µM with NCI-H460 lung and 14.9 µM in the assay with BT-549 breast.

As to `COc1ccc(N=Nc2c3c(c(O)c4ccccc24)CCC(C)(C)O3)cc1`, the TGI in the assay on MDA-N was 30.6 µM; in the assay with HCC-2998 colon, 24.5 µM; with NCI-H226 lung, above 100 µM; in the assay with SK-MEL-2 melanoma it was 40.3 µM; in the assay with CCRF-CEM leukemia, 41.7 µM; in the assay on SF-295 CNS, 30.3 µM. Further, the TGI in the assay on HL-60(TB) leukemia worked out at 50.1 µM; in the assay with UO-31 renal, 35.2 µM; with NCI-H460 lung, 29.8 µM; in the assay on BT-549 breast, 34.6 µM.

Take `CC12CC1C(c1cccc([N+](=O)[O-])c1)(c1cccc([N+](=O)[O-])c1)N=N2` (stereo not given): the TGI in the assay on MDA-N was 50.5 µM; in the assay with HCC-2998 colon, above 100 µM; in the assay with NCI-H226 lung, above 100 µM; with SK-MEL-2 melanoma, above 100 µM; in the assay with CCRF-CEM leukemia, 43.9 µM; with SF-295 CNS it was above 100 µM. Moreover, the TGI was 45.8 µM in the assay with HL-60(TB) leukemia, 23.8 µM with UO-31 renal, above 100 µM in the assay with NCI-H460 lung and 45.8 µM in the assay on BT-549 breast.

Take `Cn1ccnc1Sc1ccc(C=Nc2ccc3nc(SCC(=O)NC4CCCCC4)sc3c2)cc1[N+](=O)[O-]`: the TGI in the assay on MDA-N was above 100 µM; in the assay on HCC-2998 colon it was above 100 µM; in the assay with NCI-H226 lung, above 100 µM; in the assay with SK-MEL-2 melanoma, 54.1 µM; with CCRF-CEM leukemia, above 100 µM; with SF-295 CNS it was 44.4 µM. In addition, the TGI was above 100 µM in the assay on HL-60(TB) leukemia, above 100 µM with UO-31 renal, above 100 µM in the assay with NCI-H460 lung and 46.8 µM with BT-549 breast.

On to `COc1ccc(/C=N/N2C(=O)c3c(N)c(C#N)c(-c4ccccc4)c(-c4ccccc4)c3C2=O)cc1`, for which the TGI in the assay with MDA-N, with HCC-2998 colon, in the assay on NCI-H226 lung, with SK-MEL-2 melanoma, with CCRF-CEM leukemia and in the assay on SF-295 CNS was above 100 µM in each case. Further, the TGI in the assay with HL-60(TB) leukemia, in the assay on UO-31 renal, in the assay on NCI-H460 lung and with BT-549 breast was above 100 µM in each case.

Regarding `O=C(O)c1ccc2c(c1)CC1(C2)Cc2cc3c(cc2C1=O)CCC3` (stereo not given), the TGI with MDA-N, with HCC-2998 colon, in the assay with NCI-H226 lung, in the assay with SK-MEL-2 melanoma, with CCRF-CEM leukemia and in the assay on SF-295 CNS was above 100 µM in each case. Further, the TGI in the assay with HL-60(TB) leukemia, in the assay with UO-31 renal, in the assay on NCI-H460 lung and in the assay on BT-549 breast was above 100 µM each time.

As for `CC1=C[C@@H](C)C[C@]2(C)CC[C@H](O2)[C@]23CC[C@](C(=O)O)(C[C@H](O2)[C@@H]2O[C@@](C)(CC2=O)[C@@H](O)[C@H]2CC[C@@]4(CCC[C@@H](O4)[C@H](C)C(=O)O[C@H]4C[C@H]([C@]5(O)OCC[C@H](C)[C@@H]5O)O[C@H]4C=C1)O2)O3`, the TGI with MDA-N, in the assay with HCC-2998 colon, with NCI-H226 lung, in the assay with SK-MEL-2 melanoma, in the assay with CCRF-CEM leukemia and in the assay on SF-295 CNS was above 10 µM each time. Further, the TGI in the assay with HL-60(TB) leukemia, in the assay with UO-31 renal, in the assay with NCI-H460 lung and with BT-549 breast was above 10 µM in each case.

In the case of `O=C1CCc2ccc3c(c21)CC1(Cc2ccccc2C1)C3`, the TGI with MDA-N is above 100 µM; with HCC-2998 colon, 49.3 µM; in the assay on NCI-H226 lung, 67.8 µM; in the assay on SK-MEL-2 melanoma, 38.7 µM; in the assay on CCRF-CEM leukemia, above 100 µM; with SF-295 CNS it was 38 µM. The TGI in the assay on HL-60(TB) leukemia is 7.03 µM; in the assay with UO-31 renal it was 34 µM; in the assay with NCI-H460 lung, 20.6 µM; in the assay with BT-549 breast, above 100 µM.

For the compound `CCc1nc2cc3cccnc3c(Cl)c2[nH]c1=O`, the TGI in the assay with MDA-N, with HCC-2998 colon, in the assay on NCI-H226 lung, in the assay on SK-MEL-2 melanoma, in the assay on CCRF-CEM leukemia and in the assay with SF-295 CNS was above 100 µM throughout. Moreover, the TGI in the assay with HL-60(TB) leukemia, with UO-31 renal, with NCI-H460 lung and in the assay on BT-549 breast was above 100 µM throughout.

With `COC(=O)C(CC(C)C)NC(=O)C(N)Cc1ccc(OCc2ccccc2)cc1` (stereo not given) (H-Tyr(Bn)-Leu-OMe; configuration not given here), the TGI in the assay with MDA-N, in the assay with HCC-2998 colon, in the assay with NCI-H226 lung, in the assay with SK-MEL-2 melanoma, in the assay with CCRF-CEM leukemia and in the assay with SF-295 CNS was above 10 µM each time. Also, the TGI in the assay with HL-60(TB) leukemia was 5.61 µM; in the assay on UO-31 renal, above 10 µM; in the assay with NCI-H460 lung, above 10 µM; in the assay with BT-549 breast, above 10 µM.
